Laboratory results reported in ChEMBL document CHEMBL3301458, “MMV Malaria Box hERG screening”.
The source made the active and inactive calls. No rule for the calls is given here.

Columns and labels:
hERG (Kv11.1, KCNH2) [1] = biological target: T1, hERG (Kv11.1, KCNH2) (Homo sapiens, UniProt Q12809); experiment: in vitro
Description: MMV: Malaria Box compounds were tested for inhibition of the human ether a go-go related gene (hERG), Kv11.1 channel, using IonWorks 384-well patch clamp electrophysiology at 1.1uM (3 independent assay plates up to 12 cells per concentration).

hERG (Kv11.1, KCNH2) [2] = biological target: T1, hERG (Kv11.1, KCNH2); experiment: in vitro; remark: listed apart in the source
Description: MMV: Malaria Box compounds were tested for inhibition of the human ether a go-go related gene (hERG), Kv11.1 channel, using IonWorks 384-well patch clamp electrophysiology at 11.1uM (3 independent assay plates up to 12 cells per concentration).

T1 sequence (Q12809 whole entry): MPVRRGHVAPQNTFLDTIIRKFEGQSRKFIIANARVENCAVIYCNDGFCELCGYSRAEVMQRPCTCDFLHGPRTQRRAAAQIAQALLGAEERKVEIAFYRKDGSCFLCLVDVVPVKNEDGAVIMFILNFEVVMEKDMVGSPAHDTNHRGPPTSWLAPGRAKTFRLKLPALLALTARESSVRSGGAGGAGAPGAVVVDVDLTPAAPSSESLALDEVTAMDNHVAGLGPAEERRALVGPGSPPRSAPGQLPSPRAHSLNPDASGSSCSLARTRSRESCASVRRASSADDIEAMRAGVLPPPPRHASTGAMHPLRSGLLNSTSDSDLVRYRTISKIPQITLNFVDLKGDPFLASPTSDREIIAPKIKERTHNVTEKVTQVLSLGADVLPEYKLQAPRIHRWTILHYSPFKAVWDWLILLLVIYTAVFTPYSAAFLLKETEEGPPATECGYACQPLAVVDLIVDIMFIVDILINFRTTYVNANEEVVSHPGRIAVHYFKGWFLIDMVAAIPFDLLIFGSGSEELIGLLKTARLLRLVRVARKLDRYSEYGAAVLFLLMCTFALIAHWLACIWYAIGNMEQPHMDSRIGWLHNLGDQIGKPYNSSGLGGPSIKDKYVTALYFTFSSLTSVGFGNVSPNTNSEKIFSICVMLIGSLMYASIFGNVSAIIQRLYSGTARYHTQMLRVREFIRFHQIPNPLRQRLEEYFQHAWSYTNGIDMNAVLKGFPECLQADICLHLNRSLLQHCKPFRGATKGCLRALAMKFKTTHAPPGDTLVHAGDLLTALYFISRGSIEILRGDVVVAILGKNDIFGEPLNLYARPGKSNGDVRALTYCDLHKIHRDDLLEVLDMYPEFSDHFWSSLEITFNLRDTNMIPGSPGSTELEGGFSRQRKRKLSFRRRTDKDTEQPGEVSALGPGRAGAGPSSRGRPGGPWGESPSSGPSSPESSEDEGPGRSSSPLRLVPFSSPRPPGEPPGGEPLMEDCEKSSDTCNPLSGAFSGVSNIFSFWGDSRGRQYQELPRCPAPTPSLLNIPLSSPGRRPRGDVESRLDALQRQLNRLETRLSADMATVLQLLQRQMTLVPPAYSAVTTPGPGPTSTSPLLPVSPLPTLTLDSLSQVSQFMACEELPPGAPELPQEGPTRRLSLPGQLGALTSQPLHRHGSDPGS

Row | Structure (SMILES) | inhibition at 1.1 µM (hERG (Kv11.1, KCNH2) [1]) | inhibition at 11.1 µM (hERG (Kv11.1, KCNH2) [2])
1 | CCN(CC)CCCNc1ccnc2cc3ccccc3cc12 | -2% | 23% (inactive)
2 | CCOc1cc(Cl)c(C(C)NC(=O)c2cccc(OC)c2)cc1OCC (stereo not drawn) | -3% | 9% (inactive)
3 | CC(C)(C)c1ccc(C(=O)Nc2c3c(nn2-c2cccc(Cl)c2)CSC3)cc1 | 4% | 0% (inactive)
4 | Nc1ccc(-c2nc3cc(Oc4ccc(Oc5ccc6[nH]c(-c7ccc(N)cc7)nc6c5)cc4)ccc3[nH]2)cc1 | 18% | 23% (inactive)
5 | OC(CNC1CCCC1)Cn1c2ccccc2c2ccccc21 (stereo not drawn) | 8% | 55% (active)
6 | COc1ccc(CN2CCCC(C(=O)c3ccc(C(F)(F)F)cc3)C2)c(O)c1 (stereo not drawn) | 58% | 100%
7 | CCCOCc1cc(CN2CCN(c3cccc(Cl)c3)CC2)c(O)c2ncccc12 | 3% | 106% (active)
8 | CCOc1ccc(-c2nc(NC(=O)c3cccc(S(C)(=O)=O)c3)sc2C)cc1 | 3% | 29%
9 | COc1ccc(OC)c(C2C3=C(CC(C)(C)CC3=O)N(c3ccc(Cl)c(Cl)c3)C3=C2C(=O)CC(C)(C)C3)c1 | 21% | 27%
10 | CCOC(=O)c1cn(CC)c2cc(N(C)CCc3ccc(OC)c(OC)c3)c(F)cc2c1=O | 3% | 34%
11 | O=C(NC1CCCCC1)C(c1cccs1)N(CCc1ccccc1)C(=O)c1ccco1 (stereo not drawn) | 13% | 53% (active)
12 | CCOc1ccc(C2N(C)c3ccccc3N2C)cc1 | 2% | 7% (inactive)
13 | COc1ccc(C)c2sc(N(Cc3cccnc3)C(=O)c3ccc(C#N)cc3)nc12 | 1% | 69% (active)
14 | CCCC(c1nnnn1C1CCCCC1)N1CCN(C(=O)c2ccco2)CC1 (stereo not drawn) | 3% | 52% (active)
15 | Cc1cccc(N2C(=O)C3C(C2=O)C2(c4ccccc4)C(=O)C3(c3ccccc3)C(c3ccc4c(c3)OCO4)=C2c2ccc3c(c2)OCO3)c1 (stereo not drawn) | -14% | 2% (inactive)
16 | CCCCN(CCCC)S(=O)(=O)c1ccc(NC(=O)c2ccco2)cc1 | 13% | 30%
17 | Cc1c(C)n(CC(O)CNC2CCCCC2C)c2ccccc12 (stereo not drawn) | -10% | 20% (inactive)
18 | CCC(O)c1ccc(Br)cc1NC(=O)c1cccc(Cl)c1 (stereo not drawn) | 13% | 22% (inactive)
19 | CC(=O)Nc1nnc(SCc2c(C)cc(C(C)(C)C)cc2C)s1 | 0% | 6% (inactive)
20 | CCOc1ccc(Nc2ccnc3cc(Cl)ccc23)cc1 | 5% | 26%
21 | CCOc1ccc2c(c1)CN(Cc1ccc(Cl)cc1)CO2 | 33% | 99% (active)
22 | CCOC(=O)C1=C(c2ccccc2)N=c2sc(=Cc3cc(C)n(-c4ccc(F)cc4)c3C)c(=O)n2C1c1cccc(OC)c1OC (stereo not drawn) | 3% | 11% (inactive)
23 | O=C(NCC1Cc2cccc(-c3ccncc3)c2O1)c1csc2c1CCCC2 (stereo not drawn) | 13% | 61% (active)
24 | Oc1ccccc1CN1CCC2(CCCN(Cc3ccccc3F)C2)C1 (stereo not drawn) | 1% | 59% (active)
